Measurements taken from US3939143A, “1-N-isoserylkanamycins and the production thereof” (Zaidan Hojin Biseibutsu Kagaku Kenkyu Kai, priority 1973, dated 1976).
Converted amounts (≈) assume the structure as drawn. Where two headings read alike, the source gives them in different places.

Key:
[1] = test system: Escherichia coli W677; assay: Minimum inhibitory concentration, serial dilution on nutrient agar; assay type: cell-based; conditions: read-out: Minimum Inhibitory Concentration
[2] = acute toxicity upon intravenous injection in mice; assay type: in vivo; conditions: mouse, in vivo; intravenous injection, mice
[3] = test system: Staphylococcus aureus Terajima; assay: Minimum inhibitory concentration, serial dilution on nutrient agar; assay type: cell-based; conditions: read-out: Minimum Inhibitory Concentration
[4] = test system: Escherichia coli LA290 R64; assay: as above; assay type: cell-based; conditions: LA290R64, 18 h, read-out: Minimum Inhibitory Concentration
[5] = test system: Proteus vulgaris OX 19; assay: as above; assay type: cell-based; conditions: read-out: Minimum Inhibitory Concentration
[6] = test system: Pseudomonas aeruginosa GN315; assay: as above; assay type: cell-based; conditions: read-out: Minimum Inhibitory Concentration
[7] = test system: Klebsiella pneumoniae PCI 602; assay: as above; assay type: cell-based; conditions: read-out: Minimum Inhibitory Concentration
[8] = test system: Bacillus subtilis NRRL B-558; assay: as above; assay type: cell-based; conditions: read-out: Minimum Inhibitory Concentration
[9] = test system: Salmonella enteritidis 1891; assay: as above; assay type: cell-based; conditions: Salmonella enterica, read-out: Minimum Inhibitory Concentration
[10] = test system: Escherichia coli K-12; assay: as above; assay type: cell-based; conditions: read-out: Minimum Inhibitory Concentration
[11] = test system: Bacillus anthracis; assay: microbe, parasite or virus in culture; assay type: cell-based; conditions: 18 h, read-out: Minimum Inhibitory Concentration
[12] = test system: Pseudomonas aeruginosa TI-13; assay: Minimum inhibitory concentration, serial dilution on nutrient agar; assay type: cell-based; conditions: TI13, 37°C, 18 hours
Method: (§1) The minimum inhibitory concentrations (mcg/ml) of 1-N-DL-isoserylkanamycin,1-N-DL-isoserylkanamycin B and 1-N-DL-isoseryl-3',4'-dideoxykanamycin B against various microorganisms were determined according to the serial dilution method using nutrient agar medium at 37°C, the estimation being effected after 18 hours incubation. For comparison purposes, the minimum inhibitory concentrations of kanamycin, kanamycin B and 3',4'-dideoxykanamycin B were also determined in the same manner and under the same conditions as mentioned above.
(§2) The antibacterial spectra of 1-N-DL-isoseryl-kanamycin (abbreviated as 1-IS-KM), 1-N-DL-isoseryl-kanamycin B (abbreviated as 1-IS-KMB) and 1-N-DL-isoseryl-3',4'-dideoxykanamycin B (abbreviated as 1-IS-DKB) are shown in the following table together with those of kanamycin (abbreviatedas KM), kanamycin B (abbreviated as KMB) and 3',4'-dideoxykanamycin B (abbreviated as DKB).

[13] = test system: Pseudomonas aeruginosa A3; assay: as above; assay type: cell-based; conditions: 37°C, 18 hours
Method: as §1, §2

[14] = test system: Escherichia coli K-12 ML 1630; assay: as above; assay type: cell-based; conditions: K12ML1630, 37°C, 18 hours
Method: as §1, §2

[15] = test system: Shigella sonnei JS 11746; assay: as above; assay type: cell-based; conditions: JS11746, 37°C, 18 hours
Method: as §1, §2

[16] = test system: Shigella flexneri 4b JS 11811; assay: as above; assay type: cell-based; conditions: 4BJS11811, 37°C, 18 hours
Method: as §1, §2

[17] = test system: Escherichia coli K-12 ML 1410; assay: as above; assay type: cell-based; conditions: K12ML1410, 18 h, read-out: Minimum Inhibitory Concentration
[18] = test system: Bacillus cereus ATCC 10702; assay: as above; assay type: cell-based; conditions: read-out: Minimum Inhibitory Concentration
[19] = test system: Sarcina lutea PCI 1001; assay: as above; assay type: cell-based; conditions: Micrococcus luteus, read-out: Minimum Inhibitory Concentration
[20] = test system: Staphylococcus aureus FDA 209P; assay: as above; assay type: cell-based; conditions: FDA209P, read-out: Minimum Inhibitory Concentration
[21] = test system: Shigella dysenteriae JS 11910; assay: as above; assay type: cell-based; conditions: JS11910, 18 h, read-out: Minimum Inhibitory Concentration
[22] = test system: Escherichia coli NIHJ; assay: as above; assay type: cell-based; conditions: 18 h, read-out: Minimum Inhibitory Concentration
[23] = test system: drug-resistant strains of Escherichia coli and Pseudomonas aeruginosa; assay: antibacterial activity against drug-resistant strains, in words; assay type: cell-based
[24] = test system: Escherichia coli K-12 ML 1410 R81; assay: Minimum inhibitory concentration, serial dilution on nutrient agar; assay type: cell-based; conditions: 18 h, read-out: Minimum Inhibitory Concentration
[25] = test system: Escherichia coli K-12 ML 1629; assay: as above; assay type: cell-based; conditions: K12ML1629, 18 h, read-out: Minimum Inhibitory Concentration
[26] = test system: Bacillus subtilis PCI 219; assay: as above; assay type: cell-based; conditions: read-out: Minimum Inhibitory Concentration
[27] = test system: Mycobacterium smegmatis ATCC 607; assay: as above; assay type: cell-based; conditions: Mycolicibacterium smegmatis, read-out: Minimum Inhibitory Concentration
[28] = test system: gram-negative and gram-positive bacteria; assay: antibacterial activity, in words; assay type: cell-based; conditions: gram-negative and gram-positive bacteria sensitive to kanamycins
Method: as §1, §2

[29] = test system: Staphylococcus aureus Smith; assay: Minimum inhibitory concentration, serial dilution on nutrient agar; assay type: cell-based; conditions: read-out: Minimum Inhibitory Concentration
[30] = test system: Pseudomonas aeruginosa No.12; assay: as above; assay type: cell-based; conditions: read-out: Minimum Inhibitory Concentration
[31] = test system: Corynebacterium bovis 1810; assay: as above; assay type: cell-based; conditions: Corynebacterium bovis, 1810, 18 h, read-out: Minimum Inhibitory Concentration
[32] = test system: Pseudomonas aeruginosa 99; assay: as above; assay type: cell-based; conditions: read-out: Minimum Inhibitory Concentration
[33] = test system: Salmonella typhosa T-63; assay: as above; assay type: cell-based; conditions: Salmonella enterica, 18 h, read-out: Minimum Inhibitory Concentration
[34] = test system: Escherichia coli LA290 R56; assay: as above; assay type: cell-based; conditions: LA290R56, 18 h, read-out: Minimum Inhibitory Concentration
[35] = test system: Klebsiella pneumoniae 22 No. 3038; assay: as above; assay type: cell-based; conditions: 22NO.3038, 18 h, read-out: Minimum Inhibitory Concentration
[36] = test system: Escherichia coli JR66/W677; assay: as above; assay type: cell-based; conditions: JR66/W677, 18 h, read-out: Minimum Inhibitory Concentration
[37] = test system: Escherichia coli LA290 R55; assay: as above; assay type: cell-based; conditions: LA290R55, 18 h, read-out: Minimum Inhibitory Concentration

Which results are given for `NCC(O)C(=O)N[C@@H]1C[C@H](N)[C@@H](O[C@H]2O[C@H](CN)[C@@H](O)[C@H](O)[C@H]2O)[C@H](O)[C@H]1O[C@H]1O[C@H](CO)[C@@H](O)[C@H](N)[C@H]1O` (mixture of isomers) [1-IS-KM, 1-N-DL-isoserylkanamycin]?
MIC ([1]; W677, 37°C, 18 hours): 0.78 µg/mL; LD50 [2]: > 200 mg/kg; MIC ([3]; 37°C, 18 hours): < 0.2 µg/mL; MIC [4]: 0.78 µg/mL; MIC ([5]; OX19, 37°C, 18 hours): 0.39 µg/mL; MIC ([6]; GN315, 37°C, 18 hours): > 100 µg/mL; MIC ([7]; PCI602, 37°C, 18 hours): 0.39 µg/mL; MIC ([8]; NRRLB558, 37°C, 18 hours): < 0.2 µg/mL; MIC ([9]; 37°C, 18 hours): 0.78 µg/mL; MIC ([10]; K12, 37°C, 18 hours): 0.78 µg/mL; MIC [11]: < 0.2 µg/mL; MIC [12]: 3.13 µg/mL; MIC [13]: 3.13 µg/mL; MIC [14]: 1.56 µg/mL; MIC [15]: 1.56 µg/mL; MIC [16]: 3.13 µg/mL; MIC [17]: 1.56 µg/mL; MIC ([18]; ATCC10702, 37°C, 18 hours): 0.78 µg/mL; MIC ([19]; PCI1001, 37°C, 18 hours): 3.12 µg/mL; MIC ([20]; 37°C, 18 hours): 0.78 µg/mL; MIC [21]: 3.13 µg/mL; MIC [22]: 1.56 µg/mL; antibacterial activity [23]: high antibacterial activity; MIC [24]: 1.56 µg/mL; MIC [25]: 1.56 µg/mL; MIC ([26]; PCI219, 37°C, 18 hours): < 0.2 µg/mL; MIC ([27]; ATCC607, 37°C, 18 hours): 0.39 µg/mL; antibacterial activity [28]: high antibacterial activity; MIC ([29]; 37°C, 18 hours): 0.2 µg/mL; MIC ([30]; NO.12, 37°C, 18 hours): 0.78 µg/mL; MIC [31]: 1.56 µg/mL; MIC ([32]; Pseudomonas aeruginosa, 99, 37°C, 18 hours): 6.25 µg/mL; MIC [33]: 0.78 µg/mL; MIC [34]: 0.78 µg/mL; MIC [35]: 1.56 µg/mL; MIC [36]: 3.13 µg/mL; MIC [37]: 1.56 µg/mL

For `NC[C@H]1O[C@H](O[C@H]2[C@H](O)[C@@H](O[C@H]3O[C@H](CO)[C@@H](O)[C@H](N)[C@H]3O)[C@H](N)C[C@@H]2N)[C@H](N)[C@@H](O)[C@@H]1O` [KMB, kanamycin B, reference compound], which MIC ([1]; W677, 18 h) is on record?
The MIC was 0.39 µg/mL (≈ 0.807 µM).

And the MIC ([3]; 18 h)?
Its MIC is under 0.2 µg/mL.

And the MIC [4]?
Its MIC is 3.13 µg/mL (≈ 6.47 µM).

What about the MIC ([5]; OX19, 18 h) of the same compound?
The MIC was 0.78 µg/mL (≈ 1.61 µM).

And the MIC ([6]; GN315, 18 h)?
Its MIC is over 100 µg/mL.

And the MIC ([7]; PCI602, 18 h)?
Its MIC is 0.78 µg/mL (≈ 1.61 µM).

What about the MIC ([8]; NRRLB558, 18 h) of the same compound?
Its MIC is under 0.2 µg/mL.

What about the MIC ([9]; 18 h) of the same compound?
Its MIC is 1.56 µg/mL (≈ 3.23 µM).

And the MIC ([10]; K12, 18 h)?
The MIC was 0.78 µg/mL (≈ 1.61 µM).

What about the MIC [11] of the same compound?
Its MIC is under 0.2 µg/mL.

What about the MIC [12] of the same compound?
The MIC was 100 µg/mL (≈ 207 µM).

And the MIC [13]?
Its MIC is 50 µg/mL (≈ 103 µM).

What about the MIC [14] of the same compound?
The MIC was over 100 µg/mL.

And the MIC [15]?
The MIC was 1.56 µg/mL (≈ 3.23 µM).

What about the MIC [16] of the same compound?
Its MIC is 3.13 µg/mL (≈ 6.47 µM).

What about the MIC [17] of the same compound?
Its MIC is 0.78 µg/mL (≈ 1.61 µM).

And the MIC ([18]; ATCC10702, 18 h)?
Its MIC is 0.78 µg/mL (≈ 1.61 µM).

What about the MIC ([19]; PCI1001, 18 h) of the same compound?
Its MIC is 1.56 µg/mL (≈ 3.23 µM).

What about the MIC ([20]; 18 h) of the same compound?
Its MIC is 0.39 µg/mL (≈ 0.807 µM).

And the MIC [21]?
The MIC was 3.13 µg/mL (≈ 6.47 µM).

And the MIC [22]?
Its MIC is 0.78 µg/mL (≈ 1.61 µM).

And the MIC [24]?
Its MIC is over 100 µg/mL.

What about the MIC [25] of the same compound?
Its MIC is over 100 µg/mL.

And the MIC ([26]; PCI219, 18 h)?
Its MIC is under 0.2 µg/mL.

What about the MIC ([27]; ATCC607, 18 h) of the same compound?
Its MIC is 0.78 µg/mL (≈ 1.61 µM).

What about the MIC ([29]; 18 h) of the same compound?
The MIC was under 0.2 µg/mL.

And the MIC ([30]; NO.12, 18 h)?
Its MIC is 12.5 µg/mL (≈ 25.9 µM).

And the MIC [31]?
Its MIC is 1.56 µg/mL (≈ 3.23 µM).

What about the MIC ([32]; Pseudomonas aeruginosa, 99, 18 h) of the same compound?
Its MIC is over 100 µg/mL.

And the MIC [33]?
Its MIC is 0.2 µg/mL (≈ 0.414 µM).

What about the MIC [34] of the same compound?
Its MIC is 3.13 µg/mL (≈ 6.47 µM).

And the MIC [35]?
Its MIC is over 100 µg/mL.

What about the MIC [36] of the same compound?
The MIC was over 100 µg/mL.

What about the MIC [37] of the same compound?
The MIC was 12.5 µg/mL (≈ 25.9 µM).
